In one data set the target is T1, human soluble ENPP1 (Homo sapiens, UniProt P22413).
T1 construct: addition of 20 ng of human soluble ENPP1; His; made in house; host or cells: 293-F cells (protein harvested from the medium)
T1 sequence (P22413 103-925 limits assumed): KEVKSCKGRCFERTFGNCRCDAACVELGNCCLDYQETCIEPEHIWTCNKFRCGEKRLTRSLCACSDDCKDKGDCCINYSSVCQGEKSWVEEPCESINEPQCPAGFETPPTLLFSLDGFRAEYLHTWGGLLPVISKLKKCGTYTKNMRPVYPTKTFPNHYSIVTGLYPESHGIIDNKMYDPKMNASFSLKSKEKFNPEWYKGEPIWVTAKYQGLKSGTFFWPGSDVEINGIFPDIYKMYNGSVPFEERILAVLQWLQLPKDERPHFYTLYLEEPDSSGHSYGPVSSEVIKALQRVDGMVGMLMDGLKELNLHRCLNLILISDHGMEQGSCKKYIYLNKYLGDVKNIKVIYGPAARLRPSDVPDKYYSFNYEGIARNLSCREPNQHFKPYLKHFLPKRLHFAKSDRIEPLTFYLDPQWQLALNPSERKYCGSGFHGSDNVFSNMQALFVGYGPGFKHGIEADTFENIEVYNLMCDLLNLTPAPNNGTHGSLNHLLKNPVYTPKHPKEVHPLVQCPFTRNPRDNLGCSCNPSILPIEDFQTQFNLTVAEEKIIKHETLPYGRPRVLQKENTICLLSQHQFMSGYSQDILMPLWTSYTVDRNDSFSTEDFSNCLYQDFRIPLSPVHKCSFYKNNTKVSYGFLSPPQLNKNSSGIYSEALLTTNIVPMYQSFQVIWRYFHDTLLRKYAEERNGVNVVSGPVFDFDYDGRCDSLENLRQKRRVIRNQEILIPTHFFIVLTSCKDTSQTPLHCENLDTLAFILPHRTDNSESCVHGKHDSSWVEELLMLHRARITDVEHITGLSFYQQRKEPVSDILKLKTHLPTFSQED
Put plainly: Enzyme-based ENPP1 inhibitory assay (pNP-TMP substrate, 405 nm). Type of data set: biochemical. The conditions noted are these: for inhibition at 10 µM: pH 9, 10 μM compound, 200 μM pNP-TMP, pH 9.0, 37 °C; for IC50: three independent enzymatic assays, read-out: IC50 against ENPP1 (enzymatic assay). How it is done: In total, 1 mg hENPP1-HIS DNA using polyethylenimine at a DNA:PEI ratio of 1:3 was transfected into 1 L of 293-F cells in 293 freestyle medium. The medium was harvested after five days and filter-sterilized. […] Approximately 1 mg of purified protein was obtained from the 1-liter culture. The quality of the protein purification was validated by SDS-PAGE analysis (see Figure S1).
The initial screenings were carried out at 37 °C in a total volume of 0.1 mL of the following incubation mixture: 1 mM CaCl2, 200 μM ZnCl2, 50 mM Tris, pH 9.0, and 10 μM of each test compound. The enzyme reactions began with the addition of 20 ng of human soluble ENPP1, then incubated at 37 °C for 10 min and initiated by the addition of 200 μM pNP-TMP. The production of p-nitrophenol was measured after 30 min reaction at 405 nm. […] For the blank samples, the enzyme was added at the end of the reaction and read immediately. The IC50 values of test compounds were calculated by plotting three independent experiments using the program Prism 5.0. Incubation and operation conditions remained the same as those described above.

In the next data set the test system is 4T1 cell line. Put plainly: Cell proliferation assay (CCK8), 4T1. The conditions noted are these: CCK8, 48 h, read-out: IC50 against 4T1 cell line. Type of data set: cell-based. The protocol:
In total, 1 × 10^4 cells (4T1, LO2 and 293T) were plated in 96-well flat-bottom plates in a final volume of 200 μL DMEM supplemented with 10% FBS and cultured for 24 h. Next, the culture was replaced by fresh DMEM medium (200 μL) and the compound (10 μL) was added. After forty-eight hours, the medium was replaced by PBS (180 μL) mixture with CCK8 solution (20 μL) in each well. Cell viability was evaluated by testing the OD450 nm. The data were processed by GraphPad Prism 7.0 [45, 46].

Data set [1] has as its target T2, ENPP1 in the MDA-MB-231 cell line (Homo sapiens, UniProt P22413).
T2 construct: MDA-MB-231 cells highly expressed ENPP1; endogenous in cells; host or cells: MDA-MB-231
T2 sequence (P22413 1-925): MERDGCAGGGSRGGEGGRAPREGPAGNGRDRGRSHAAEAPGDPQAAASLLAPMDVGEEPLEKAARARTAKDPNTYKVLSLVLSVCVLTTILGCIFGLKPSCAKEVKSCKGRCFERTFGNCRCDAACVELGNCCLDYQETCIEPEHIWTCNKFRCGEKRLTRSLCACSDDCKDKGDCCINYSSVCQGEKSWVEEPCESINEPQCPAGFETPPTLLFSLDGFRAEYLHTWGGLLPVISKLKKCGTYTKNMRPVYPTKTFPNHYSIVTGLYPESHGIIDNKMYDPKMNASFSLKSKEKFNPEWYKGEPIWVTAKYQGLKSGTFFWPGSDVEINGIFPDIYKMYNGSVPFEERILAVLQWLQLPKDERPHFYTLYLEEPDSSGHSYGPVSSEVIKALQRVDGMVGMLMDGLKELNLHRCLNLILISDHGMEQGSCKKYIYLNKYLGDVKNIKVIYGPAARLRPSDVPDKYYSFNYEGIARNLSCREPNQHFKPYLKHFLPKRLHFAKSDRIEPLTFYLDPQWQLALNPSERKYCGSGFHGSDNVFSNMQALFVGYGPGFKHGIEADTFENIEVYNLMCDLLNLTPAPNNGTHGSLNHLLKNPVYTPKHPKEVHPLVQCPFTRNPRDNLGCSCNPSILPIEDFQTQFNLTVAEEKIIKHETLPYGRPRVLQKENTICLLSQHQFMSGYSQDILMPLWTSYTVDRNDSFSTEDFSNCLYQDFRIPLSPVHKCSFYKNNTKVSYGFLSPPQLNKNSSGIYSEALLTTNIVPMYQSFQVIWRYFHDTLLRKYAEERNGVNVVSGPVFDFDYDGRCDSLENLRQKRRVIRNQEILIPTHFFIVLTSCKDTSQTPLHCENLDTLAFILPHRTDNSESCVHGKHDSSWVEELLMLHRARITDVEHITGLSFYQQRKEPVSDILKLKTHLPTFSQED
Kind of data set: Cellular ENPP1 enzymatic inhibition assay in MDA-MB-231 cells (pNP-TMP). The conditions noted are these: 4 h incubation, 200 μM pNP-TMP; three independent cell assays; read-out: IC50 against ENPP1 in MDA-MB-231 cell line. Type of data set: cell-based. How it is done: MDA-MB-231 (1.0 × 10^4 cells/well) were grown on 96-well microplates (IWAKI) overnight in the culture medium (100 μL/well) in a humidified incubator containing 5% CO2 in air at 37 °C for 24 h. The plates were washed with D-Hanks (100 μL) twice, and fresh D-Hanks (80 μL) was added. 5% DMSO or test compound (10 μL) was added to each well, and eventually pNP-TMP (2 mM, 10 μL, final 200 μM) was added. After 4 h incubation at 37 °C, the amounts of released p-nitrophenolate were measured at 405 nm. The IC50 values of test compounds were calculated by plotting three independent experiments using the program Prism 5.0 [38].

For the next data set, the system named is LO2 cell line. Put plainly: Cell viability assay (CCK8), LO2. The class given is cell-based. The protocol:
(§1) Next, the culture was replaced by fresh DMEM medium (200 μL) and the compound (10 μL) was added. After forty-eight hours, the medium was replaced by PBS (180 μL) mixture with CCK8 solution (20 μL) in each well. Cell viability was evaluated by testing the OD450 nm. The data were processed by GraphPad Prism 7.0 [45, 46].

For the next data set, the system named is IFN-β in serum. Put plainly: IFN-β in mouse serum by ELISA after i.v. administration. The conditions noted are these: blood after 0.5 h. The class given is in vivo, BALB/c nude mice. The protocol: The animal studies were conducted with the approval of the Animal Care and Use Committee at Fudan University. BALB/c nude mice (6−8 weeks) were randomized into three groups (n = 3, with a total tumor number of 9). Free cGAMP (at dose of 5 mg/kg) and cGAMP-compound 4e (at doses of 5 mg/kg cGAMP and 0.5 mg/kg compound 4e), respectively, were injected intravenously (i.v.) into mice via tail vein. After i.v. administration, mouse blood samples were collected from ophthalmic vein after 0.5 h and centrifuged at 500× g for 20 min. The concentration of IFN-β in the serum was determined by mouse ELISA kits, according to the instruction manual.
In general terms: ELISA stands for enzyme-linked immunosorbent assay.

The subject of the next data set is 293T cell line. Kind of data set: Cell viability assay (CCK8), 293T. The class given is cell-based. How it is done: as §1

One may read the inhibition as the percentage by which the read-out fell short of the control. For orientation: IC50 means the point on the concentration scale where inhibition reaches its midpoint.

Values joined by “and” are separate entries in the source; they are usually repeats but may differ in a detail not shown here. Equal entries are not always repeated. “Also recorded” adds a separate entry of the source. Where two headings read alike, the source gives them in different places.

On human soluble ENPP1, `COc1ccc2[nH]c(SCc3nc4cc(Cl)ccc4c(=O)[nH]3)nc2n1` [Compound 4f, 7-Chloro-2-(((5-methoxy-1H-imidazo[4,5-b]pyridin-2-yl)thio)methyl)quinazolin-4(3H)-one] showed an inhibition at 10 µM of 52.9%.

Regarding `N.N.[Cl][Pt][Cl]` [Cisplatin, cisplatin, reference compound], the IC50 with 4T1 cell line was determined as 3.2 µM.

In the case of `COc1ccc2[nH]c(SCc3nc4cc(C)ccc4c(=O)[nH]3)nc2n1` [Compound 4c, 2-(((5-Methoxy-1H-imidazo[4,5-b]pyridin-2-yl)thio)methyl)-7-methylquinazoli-n-4(3H)-one], on human soluble ENPP1, the inhibition at 10 µM was 75.4%.

For the compound `COc1ccc2nc(CSc3nc4nc(OC)ccc4[nH]3)[nH]c(=O)c2c1` [Compound 4b, 6-Methoxy-2-(((5-methoxy-1H-imidazo[4,5-b]pyridin-2-yl)thio)methyl)quinaz-olin-4(3H)-one], the inhibition at 10 µM at human soluble ENPP1 was 76.5%.

On to `COc1ccc2[nH]c(SCc3nc4c(Br)cccc4c(=O)[nH]3)nc2n1` [Compound 4h, 8-Bromo-2-(((5-methoxy-1H-imidazo[4,5-b]pyridin-2-yl)thio)methyl)quinazoli-n-4(3H)-one], for which the inhibition at 10 µM at human soluble ENPP1 amounted to 55.5%.

Turning to `COC(=O)c1ccc2c(=O)[nH]c(CSc3nc4nc(OC)ccc4[nH]3)nc2c1` [Compound 4d, Methyl 2-(((5-methoxy-1H-imidazo[4,5-b]pyridin-2-yl)thio)methyl)-4-oxo-3,4-dihydroquina-zoline-7-carboxylate], at human soluble ENPP1, the inhibition at 10 µM is over 90% and the IC50 was determined as 0.694 µM. The half-inhibitory concentration (IC50) in data set [1] is 3.34 µM.

On to `COc1ccc2[nH]c(SCc3nc4cccc(F)c4c(=O)[nH]3)nc2n1` [Compound 4a, 5-Fluoro-2-(((5-methoxy-1H-imidazo[4,5-b]pyridin-2-yl)thio)methyl)quinazol-in-4(3H)-one], for which at 10 µM the inhibition at human soluble ENPP1 was 72.2%.

Take `COc1ccc2[nH]c(SCc3nc4cc(F)ccc4c(=O)[nH]3)nc2n1` [Compound 4e, 7-Fluoro-2-(((5-methoxy-1H-imidazo[4,5-b]pyridin-2-yl)thio)methyl)quinazolin-4(3H)-one]: the “cytotoxic effect (% inhibition) against LO2” value in the data set with LO2 cell line (50 μM, CCK8, 48 h) is recorded as 15.33%. In addition, in the data set with LO2 cell line (highest concentration 50 μM), the “cytotoxic effect on LO2 (in words)” value is reported as “nonsignificant cytotoxic effect; also recorded: negligible cytotoxic effects”. Further, in the data set on IFN-β in serum (5 mg/kg cGAMP and 0.5 mg/kg compound 4e i.v.), the “IFN-β expression level in serum, cGAMP-compound 4e group compared with free-cGAMP group” value is “higher”. Also, the inhibition at 10 µM at human soluble ENPP1 was over 90%. Moreover, the IC50 was 0.188 µM and < 1 µM on human soluble ENPP1; < 1 µM and 0.732 µM in data set [1]; 2.99 µM in the data set on 4T1 cell line (Mus musculus, 4T1). In addition, the “cytotoxic effect (% inhibition) against 293T” value with 293T cell line (50 μM, CCK8, 48 h) was found to be 9.35%. Besides, in the data set on 293T cell line (highest concentration 50 μM), the “cytotoxic effect on 293T (in words)” value is “nonsignificant cytotoxic effect; also recorded: negligible cytotoxic effects”.

The compound `COc1ccc2[nH]c(SCc3nc4c(C)cccc4c(=O)[nH]3)nc2n1` [Compound 4g, 2-(((5-Methoxy-1H-imidazo[4,5-b]pyridin-2-yl)thio)methyl)-8-methylquinazoli-n-4(3H)-one] had an inhibition at 10 µM at human soluble ENPP1 of 72.7%.

Consider `Nc1nc2c(ncn2[C@@H]2O[C@@H]3COP(=O)(O)O[C@H]4[C@@H](O)[C@H](n5cnc6c(N)ncnc65)O[C@@H]4COP(=O)(O)O[C@@H]2[C@@H]3O)c(=O)[nH]1` [cGAMP, 2′,3′-cyclic GMP-AMP, reference compound], for which the “IFN-β in serum, free cGAMP compared with model mice” value in the data set with IFN-β in serum (5 mg/kg cGAMP i.v.) is reported as “upregulation”.
